Test results as given in patent publication US11628181B2, “N4-hydroxycytidine and derivatives and anti-viral uses related thereto” (Emory University, priority 2014, dated 2023).
Where two headings read alike, the source gives them in different places.

Tests used:
VEEV [1] = test: microbe, parasite or virus in culture; format: cell-based; conditions: Venezuelan equine encephalitis virus, HeLa; for inhibition at 10 µM: read-out: Viral Inh. 10 uM; for inhibition at 50 µM: read-out: Viral Inh. 50 uM
HeLa = conditions: human
CHIKV = test: microbe, parasite or virus in culture; conditions: Chikungunya virus
in vitro [2] = test: in vitro
MERV = MERV (MOI 0.4) viral inhibition in Vero; format: cell-based; conditions: MERV MOI 0.4, Vero; for inhibition at 10 µM: read-out: Viral Inh. 10 uM; for inhibition at 50 µM: read-out: Viral Inh. 50 uM
Vero = test: Cell viability, Vero (MERV screen); format: cell-based
Chikungunya virus = Chikungunya virus (MOI 0.5) viral inhibition in U2OS cell line; format: cell-based; conditions: for inhibition at 10 µM: read-out: Viral Inh. 10 uM; for inhibition at 50 µM: read-out: Viral Inh. 50 uM
U2OS cell line = test: Cell viability, U2OS cell line (Chikungunya screen)
VEEV [3] = test: microbe, parasite or virus in culture; format: cell-based; conditions: Venezuelan equine encephalitis virus, Astrocyte; for inhibition at 10 µM: read-out: Viral Inh. 10 uM; for inhibition at 50 µM: read-out: Viral Inh. 50 uM
SARS Coronavirus Urbani = test: microbe, parasite or virus in culture; format: cell-based; conditions: Severe acute respiratory syndrome-related coronavirus, Vero 76
in vitro [4] = conditions: African green monkey

Structure (SMILES): CC(C)OC(=O)[C@H](C)NP(=O)(OC[C@H]1O[C@@H](n2ccc(NO)nc2=O)C(O)C1O)Oc1ccccc1 (some centres unmarked) [drawing 80]
- EC50 (VEEV [1]): 16.2 µM
- inhibition at 10 µM (VEEV [1]): 73%
- inhibition at 50 µM (VEEV [1]): 100%
- Cell Viability 10 uM (HeLa): 137% ± 16% (n = 4)
- Cell Viability 50 uM (HeLa): 134% ± 16% (n = 4)

Structure (SMILES): O=c1ccn([C@@H]2O[C@H](CO)C(O)[C@]23CC3(F)F)c(=O)[nH]1 (some centres unmarked) [EIDD-02339-01]
- EC50 (CHIKV): > 78 µM
- CC50 (in vitro [2]): > 500 µM

Structure (SMILES): CCCCCCCOC(=O)ONc1ccn([C@@H]2O[C@H](CO)C(O)C2O)c(=O)n1 (some centres unmarked) [drawing 79]
- EC50 (VEEV [1]): 0.57 µM
- inhibition at 10 µM (VEEV [1]): 100%
- inhibition at 50 µM (VEEV [1]): 100%
- Cell Viability 10 uM (HeLa): 116% ± 20% (n = 4)
- Cell Viability 50 uM (HeLa): 85% ± 8% (n = 4)

Structure (SMILES): CCCCCCCCCCCCCCCCNC(=O)ONc1ccn([C@@H]2O[C@H](CO)[C@H](O)C2O)c(=O)n1 (some centres unmarked) [EIDD-02356-01]
- EC50 (CHIKV): > 78 µM
- CC50 (in vitro [2]): 211 µM

Structure (SMILES): CC(C)OC(=O)[C@H](C)NP(=O)(OC[C@H]1O[C@@H](n2ccc(NO)nc2=O)C(O)C1O)Oc1ccccc1 (some centres unmarked) [drawing 90]
- inhibition at 10 µM (MERV): 29%
- inhibition at 50 µM (MERV): 85%
- Cell Viability 10 uM (Vero): 103% ± 14% (n = 4)
- Cell Viability 50 uM (Vero): 102% ± 36% (n = 4)

Structure (SMILES): O=c1nc(NO)ccn1[C@@H]1O[C@H](CO)C(O)C1O (some centres unmarked) [drawing 88]
- inhibition at 10 µM (MERV): 99%
- inhibition at 50 µM (MERV): 100%
- Cell Viability 10 uM (Vero): 75% ± 6% (n = 4)
- Cell Viability 50 uM (Vero): 47% ± 3% (n = 4)

Structure (SMILES): O=c1nc(NO)ccn1[C@@H]1O[C@H](CO)[C@H](O)C1F (some centres unmarked) [EIDD-02085-01]
- EC50 (CHIKV): > 75 µM
- CC50 (in vitro [2]): > 500 µM

Structure (SMILES): O=c1nc(NO)c(F)cn1[C@@H]1O[C@H](CO)C(O)C1O (some centres unmarked) [drawing 76]
- inhibition at 10 µM (Chikungunya virus): 8%
- inhibition at 50 µM (Chikungunya virus): 51%
- Cell Viability 10 uM (U2OS cell line): 81% ± 4% (n = 4)
- Cell Viability 50 uM (U2OS cell line): 53% ± 2% (n = 4)

Structure (SMILES): CCCCCCCNC(=O)ONc1ccn([C@@H]2O[C@H](CO)C(O)C2O)c(=O)n1 (some centres unmarked) [drawing 87]
- inhibition at 10 µM (VEEV [3]): 51%
- inhibition at 50 µM (VEEV [3]): 37%
- Cell Viability 10 uM (Astrocytes): 98% ± 12% (n = 3)
- Cell Viability 50 uM (Astrocytes): 85% ± 19% (n = 3)

Structure (SMILES): CCCCCCCNC(=O)ONc1ccn([C@@H]2O[C@H](CO)C(O)C2O)c(=O)n1 (some centres unmarked) [drawing 82]
- EC50 (VEEV [1]): 6 µM
- inhibition at 10 µM (VEEV [1]): 93%
- inhibition at 50 µM (VEEV [1]): 100%
- Cell Viability 10 uM (HeLa): 151% ± 16% (n = 4)
- Cell Viability 50 uM (HeLa): 126% ± 7% (n = 4)

Structure (SMILES): CCCCCCCOC(=O)ONc1ccn([C@@H]2O[C@H](CO)C(O)C2O)c(=O)n1 (some centres unmarked) [drawing 74]
- inhibition at 10 µM (Chikungunya virus): 72%
- inhibition at 50 µM (Chikungunya virus): 98%
- Cell Viability 10 uM (U2OS cell line): 93% ± 4% (n = 4)
- Cell Viability 50 uM (U2OS cell line): 79% ± 8% (n = 4)

Structure (SMILES): CCCCCCCNC(=O)ONc1ccn([C@@H]2O[C@H](CO)C(O)C2O)c(=O)n1 (some centres unmarked) [drawing 92]
- inhibition at 10 µM (MERV): 86%
- inhibition at 50 µM (MERV): 98%
- Cell Viability 10 uM (Vero): 118% ± 15% (n = 4)
- Cell Viability 50 uM (Vero): 91% ± 39% (n = 4)

Structure (SMILES): CCCCCCCCCCCCCCCCCCNC(=O)ONc1ccn([C@@H]2O[C@H](CO)[C@H](O)C2O)c(=O)n1 (some centres unmarked) [EIDD-02357-01]
- EC50 (CHIKV): > 78 µM
- CC50 (in vitro [2]): 90 µM

Structure (SMILES): O=c1nc(NO)ccn1[C@@H]1O[C@H](COP2(=O)OCc3ccccc3O2)C(O)[C@@H]1O (some centres unmarked) [EIDD-02207-01]
- EC50 (CHIKV): 10.8 µM
- CC50 (in vitro [2]): > 500 µM

Structure (SMILES): CN(C)C(=O)ONc1ccn([C@@H]2O[C@H](CO)[C@H](O)C2O)c(=O)n1 (some centres unmarked) [EIDD-02423-01]
- EC50 (CHIKV): 25 µM
- CC50 (in vitro [2]): > 500 µM

Structure (SMILES): CCCCCCCOC(=O)OC[C@H]1O[C@@H](n2ccc(NO)nc2=O)C(O)[C@H]1O (some centres unmarked) [EIDD-02474-01]
- EC50 (CHIKV): 0.07 µM
- CC50 (in vitro [2]): 184 µM

Structure (SMILES): CCCCCCCNC(=O)OC[C@H]1O[C@@H](n2ccc(NO)nc2=O)C(O)[C@H]1O (some centres unmarked) [EIDD-02475-01]
- EC50 (CHIKV): > 78 µM
- CC50 (in vitro [2]): > 500 µM

Structure (SMILES): CC(C)(C)C(=O)OCOP(=O)(OCOC(=O)C(C)(C)C)OC[C@H]1O[C@@H](n2ccc(=O)[nH]c2=O)[C@](C)(F)C1O (some centres unmarked) [EIDD-02427-01]
- EC50 (CHIKV): 58 µM
- CC50 (in vitro [2]): 355 µM

Structure (SMILES): O=c1nc(NO)c(F)cn1[C@@H]1O[C@H](CO)C(O)C1O (some centres unmarked) [drawing 81]
- inhibition at 10 µM (VEEV [1]): 61%
- inhibition at 50 µM (VEEV [1]): 98%
- Cell Viability 10 uM (HeLa): 55% ± 4% (n = 4)
- Cell Viability 50 uM (HeLa): 36% ± 2% (n = 4)

Structure (SMILES): C[C@@]1(O)C2OP(=O)(Oc3ccccc3)OC[C@H]2O[C@H]1n1ccc(=O)[nH]c1=O (some centres unmarked) [EIDD-01872-01]
- EC50 (CHIKV): > 78 µM
- CC50 (in vitro [2]): > 500 µM

Structure (SMILES): CCCCCCCOC(=O)ONc1ccn([C@@H]2O[C@H](CO)C(O)C2O)c(=O)n1 (some centres unmarked) [drawing 84]
- inhibition at 10 µM (VEEV [3]): 94%
- inhibition at 50 µM (VEEV [3]): 100%
- Cell Viability 10 uM (Astrocytes): 99% ± 9% (n = 3)
- Cell Viability 50 uM (Astrocytes): 94% ± 10% (n = 3)

Structure (SMILES): O=c1nc(NO)cc[nH]1 [EIDD-02504-01]
- EC50 (CHIKV): > 78 µM
- CC50 (in vitro [2]): > 500 µM

Structure (SMILES): CONc1ccn([C@@H]2O[C@H](CO)C(O)C2O)c(=O)n1 (some centres unmarked)
- EC50 (SARS Coronavirus Urbani): > 100 µg/mL
- CC50 (in vitro [4]): > 100 µg/mL
